Assay results published in US20240059691A1 (KALVISTA PHARMACEUTICALS LIMITED, priority 2020, published 2024).

Target: Plasma Kallikrein (Homo sapiens (Human), UniProt P03952)
Experiment: Determination of related protease inhibition: Plasma Kallikrein (fluorogenic substrate at Km)
Type: biochemical
Details: 25° C., read-out: IC50 (human PKal)
Description: Determination of Related Protease Inhibition
In vitro inhibition of related proteases was determined using an ([…] assay based on standard literature methods (see e.g. Shori et al., Biochem. Pharmacol., 1992, 43, 1209; Bouckaert et al., European Journal of Medicinal Chemistry 110 (2016) 181). Human serine protease enzymes Plasma Kallikrein, KLK1, FXa, Plasmin, Thrombin and Trypsin were assayed for enzymatic activity using an appropriate fluorogenic substrate at Km concentration, FXIa at fixed substrate concentration of 100 μM, and various concentrations of the test compound. Protease activity was measured by monitoring the accumulation of liberated fluorescence from the substrate over […]. The linear rate of fluorescence increase per minute was expressed as percentage (%) activity. IC50 values were calculated as the concentration of inhibitor giving 50% inhibition of the uninhibited enzyme activity (100%).

Plasma Kallikrein, sequence (P03952 391-638): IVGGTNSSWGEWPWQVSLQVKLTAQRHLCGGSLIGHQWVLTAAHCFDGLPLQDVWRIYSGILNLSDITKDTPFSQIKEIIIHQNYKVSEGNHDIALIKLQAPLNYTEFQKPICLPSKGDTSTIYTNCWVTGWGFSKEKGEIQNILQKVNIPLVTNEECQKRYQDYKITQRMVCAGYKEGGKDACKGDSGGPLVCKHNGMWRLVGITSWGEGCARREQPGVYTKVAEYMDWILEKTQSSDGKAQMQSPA
Plasma Kallikrein, sequence (P03952 20-390 partner): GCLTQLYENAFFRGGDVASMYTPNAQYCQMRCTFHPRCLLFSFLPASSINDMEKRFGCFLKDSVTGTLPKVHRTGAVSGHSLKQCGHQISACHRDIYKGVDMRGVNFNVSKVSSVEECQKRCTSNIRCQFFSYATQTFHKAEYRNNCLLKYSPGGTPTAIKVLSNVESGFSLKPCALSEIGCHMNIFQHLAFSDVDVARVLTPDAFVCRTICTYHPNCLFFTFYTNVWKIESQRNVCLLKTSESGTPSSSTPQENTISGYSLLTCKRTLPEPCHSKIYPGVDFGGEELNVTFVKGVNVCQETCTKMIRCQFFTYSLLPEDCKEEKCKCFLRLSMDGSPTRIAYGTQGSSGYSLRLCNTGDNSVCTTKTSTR

| SMILES | IC50 |
| --- | --- |
| CN1CCC(CNc2ccc(CNc3cnc4[nH]cc(C#N)c4c3)cn2)CC1 [Example 1212, 5-(((6-(((1-methylpiperidin-4-yl)methyl)amino)pyridin-3-yl)methyl)amino)-1H-pyrrolo[2,3-b]pyridine-3-carbonitrile] | > 100 µM |
| CNC(=O)c1cc(NCc2ccc(NCC3CCN(C)CC3)nc2)cc2ccncc12 [Example 1210, N-methyl-6-(((6-(((1-methylpiperidin-4-yl)methyl)amino)pyridin-3-yl)methyl)amino)isoquinoline-8-carboxamide] | > 100 µM |
| CN1CCC(CNc2ccc(CNc3cc(C(=O)O)c4cnccc4c3)cn2)CC1 [Example 1203, 6-(((6-(((1-methylpiperidin-4-yl)methyl)amino)pyridin-3-yl)methyl)amino)isoquinoline-8-carboxylic acid] | > 100 µM |
| CN1CCC(CNc2ccc(CNc3ccnc4[nH]cc(C#N)c34)cn2)CC1 [Example 1221, 4-(((6-(((1-methylpiperidin-4-yl)methyl)amino)pyridin-3-yl)methyl)amino)-1H-pyrrolo[2,3-b]pyridine-3-carbonitrile] | > 100 µM |
| CN1CCC(CNc2ccc(CNc3cc(C#N)nc4[nH]ccc34)cn2)CC1 [Example 1261, 4-(((6-(((1-methylpiperidin-4-yl)methyl)amino)pyridin-3-yl)methyl)amino)-1H-pyrrolo[2,3-b]pyridine-6-carbonitrile] | > 40 µM |
| CN1CCC(CNc2ccc(CNc3ccc(F)c4cnccc34)cn2)CC1 [Example 1214, 8-fluoro-N-((6-(((1-methylpiperidin-4-yl)methyl)amino)pyridin-3-yl)methyl)isoquinolin-5-amine] | > 100 µM |
| CN1CCC(COc2cc(CNc3ccc(N(C)C)nn3)ccn2)CC1 [Example 4458, N3,N3-dimethyl-N6-((2-((1-methylpiperidin-4-yl)methoxy)pyridin-4-yl)methyl)pyridazine-3,6-diamine] | > 100 µM |
| Cc1ncc(NCc2ccc(NCC3CCN(C)CC3)nc2)c2cc[nH]c12 [Example 1244, 7-methyl-N-((6-(((1-methylpiperidin-4-yl)methyl)amino)pyridin-3-yl)methyl)-1H-pyrrolo[2,3-c]pyridin-4-amine] | > 100 µM |
| Cc1cc2c(NCc3ccc(NCC4CCN(C)CC4)nc3)ccnc2n1C [Example 1216, 1,2-dimethyl-N-((6-(((1-methylpiperidin-4-yl)methyl)amino)pyridin-3-yl)methyl)-1H-pyrrolo[2,3-b]pyridin-4-amine] | > 100 µM |
| CN1CCC(CNc2ccc(CNc3ccnc4[nH]ncc34)cn2)CC1 [Example 1218, N-((6-(((1-methylpiperidin-4-yl)methyl)amino)pyridin-3-yl)methyl)-1H-pyrazolo[3,4-b]pyridin-4-amine] | > 100 µM |
| COc1ccc2cc(NCc3ccc(NCC4CCN(C)CC4)nc3)ccc2c1 [Example 1180, 5-(((6-methoxynaphthalen-2-yl)amino)methyl)-N-((1-methylpiperidin-4-yl)methyl)pyridin-2-amine] | > 100 µM |
| CN1CCC(CNc2ccc(CNc3cnc4ccccc4c3)cn2)CC1 [Example 1183, N-((6-(((1-methylpiperidin-4-yl)methyl)amino)pyridin-3-yl)methyl)quinolin-3-amine] | > 100 µM |
| Cc1nnc(-c2ccc(NCc3ccnc(OCC4CCN(C)CC4)c3)cc2)o1 [Example 4457, 4-(5-methyl-1,3,4-oxadiazol-2-yl)-N-((2-((1-methylpiperidin-4-yl)methoxy)pyridin-4-yl)methyl)aniline] | > 100 µM |
| CN1CCC(CNc2ccc(CNc3cc(C(=O)O)c4[nH]cc(Cl)c4c3)cn2)CC1 [Example 1204, 3-chloro-5-(((6-(((1-methylpiperidin-4-yl)methyl)amino)pyridin-3-yl)methyl)amino)-1H-indole-7-carboxylic acid] | > 100 µM |
| CN1CCC(CNc2ccc(CNc3nc4ccccc4n3C)cn2)CC1 [Example 1192, 1-methyl-N-((6-(((1-methylpiperidin-4-yl)methyl)amino)pyridin-3-yl)methyl)-1H-benzo[d]imidazol-2-amine] | > 100 µM |
| CN1CCC(CNc2ccc(CNc3ccn4ccnc4c3)cn2)CC1 [Example 1222, N-((6-(((1-methylpiperidin-4-yl)methyl)amino)pyridin-3-yl)methyl)imidazo[1,2-a]pyridin-7-amine] | > 40 µM |
| CN1CCC(CNc2ccc(CNc3ccc4cncc(N5CCC(F)(F)C5)c4c3)cn2)CC1 [Example 1260, 4-(3,3-difluoropyrrolidin-1-yl)-N-((6-(((1-methylpiperidin-4-yl)methyl)amino)pyridin-3-yl)methyl)isoquinolin-6-amine] | > 40 µM |
| Nc1ncc(Cl)c2cc(NCc3ccc(N4CCn5nccc5C4)nc3)ccc12 [Example 1157, 4-chloro-N6-((6-(6,7-dihydropyrazolo[1,5-a]pyrazin-5(4H)-yl)pyridin-3-yl)methyl)isoquinoline-1,6-diamine] | > 40 µM |

| SMILES | IC50 |
| --- | --- |
| CN1CCC(CNc2ccc(CNc3ccnc4[nH]c(C(=O)O)cc34)cn2)CC1 [Example 1253, 4-(((6-(((1-methylpiperidin-4-yl)methyl)amino)pyridin-3-yl)methyl)amino)-1H-pyrrolo [2,3-b]pyridine-2-carboxylic acid] | > 40 µM |
| CN1CCC(CNc2ccc(CNc3cc(C(N)=O)nc4[nH]ccc34)cn2)CC1 [Example 1264, 4-(((6-(((1-methylpiperidin-4-yl)methyl)amino)pyridin-3-yl)methyl)amino)-1H-pyrrolo[2,3-b]pyridine-6-carboxamide] | > 40 µM |
| COc1cccc2sc(NCc3ccc(NCC4CCN(C)CC4)nc3)nc12 [Example 1200, 4-methoxy-N-((6-(((1-methylpiperidin-4-yl)methyl)amino)pyridin-3-yl)methyl)benzo[d]thiazol-2-amine] | > 100 µM |
| CN1CCC(CNc2ccc(CNc3ccc(N(C)C)nn3)cn2)CC1 [Example 1186, N3,N3-dimethyl-N6-((6-(((1-methylpiperidin-4-yl)methyl)amino)pyridin-3-yl)methyl)pyridazine-3,6-diamine] | > 100 µM |
| CN1CCC(CNc2ccc(CNc3ccnc4c3ccn4C)cn2)CC1 [Example 1225, 1-methyl-N-((6-(((1-methylpiperidin-4-yl)methyl)amino)pyridin-3-yl)methyl)-1H-pyrrolo[2,3-b]pyridin-4-amine] | > 100 µM |
| Nc1ncc(Cl)c2cc(NCc3ccnc(OCC4CCn5c(C(=O)O)cnc5C4)c3)ccc12 (centres unmarked) [Example 4453, 7-(((4-(((1-amino-4-chloroisoquinolin-6-yl)amino)methyl)pyridin-2-yl)oxy)methyl)-5,6,7,8-tetrahydroimidazo[1,2-a]pyridine-3-carboxylic acid] | > 40 µM |
| CN1CCC(CNc2ccc(CNc3ccnc4c3CC(C)(C)N4)cn2)CC1 [Example 1257, 2,2-dimethyl-N-((6-(((1-methylpiperidin-4-yl)methyl)amino)pyridin-3-yl)methyl)-2,3-dihydro-1H-pyrrolo[2,3-b]pyridin-4-amine] | > 40 µM |
| CN1CCC(CNc2ccc(CNc3cc4c(=O)[nH]ccn4c3)cn2)CC1 [Example 1199, 7-(((6-(((1-methylpiperidin-4-yl)methyl)amino)pyridin-3-yl)methyl)amino)pyrrolo[1,2-a]pyrazin-1(2H)-one] | > 100 µM |
| CC(=O)c1cncc(NCc2ccnc(OCC3CCN(C)CC3)c2)c1 [Example 4455] | > 100 µM |
| COc1ccc2ncc(NCc3ccc(NCC4CCN(C)CC4)nc3)cc2c1 [Example 1177, 6-methoxy-N-((6-(((1-methylpiperidin-4-yl)methyl)amino)pyridin-3-yl)methyl)quinolin-3-amine] | > 100 µM |
| COc1cccc2ccc(NCc3ccc(NCC4CCN(C)CC4)nc3)cc12 [Example 1178, 5-(((8-methoxynaphthalen-2-yl)amino)methyl)-N-((1-methylpiperidin-4-yl)methyl)pyridin-2-amine] | > 100 µM |
| CN1CCC(CNc2ccc(CNc3ncnc4[nH]ccc34)cn2)CC1 [Example 1227, N-((6-(((1-methylpiperidin-4-yl)methyl)amino)pyridin-3-yl)methyl)-7H-pyrrolo[2,3-d]pyrimidin-4-amine] | > 100 µM |
| CN1CCC(CNc2ccc(CNc3cnc4cccnn34)cn2)CC1 [Example 1187, N-((6-(((1-methylpiperidin-4-yl)methyl)amino)pyridin-3-yl)methyl)imidazo[1,2-b]pyridazin-3-amine] | > 100 µM |
| COC(=O)c1cc2c(NCc3ccc(NCC4CCN(C)CC4)nc3)ccnc2[nH]1 [Example 1247, methyl 4-(((6-(((1-methylpiperidin-4-yl)methyl)amino)pyridin-3-yl)methyl)amino)-1H-pyrrolo[2,3-b]pyridine-2-carboxylate] | > 100 µM |
| CN1CCC(CNc2ccc(CNc3cccn4ccnc34)cn2)CC1 [Example 1190, N-((6-(((1-methylpiperidin-4-yl)methyl)amino)pyridin-3-yl)methyl)imidazo[1,2-a]pyridin-8-amine] | > 100 µM |
| CN1CCC(CNc2ccc(CNc3cnn(-c4cccc(Cl)c4)c3)cn2)CC1 [Example 1116, 5-(((1-(3-chlorophenyl)-1H-pyrazol-4-yl)amino)methyl)-N-((1-methylpiperidin-4-yl)methyl)pyridin-2-amine] | > 100 µM |
| CNC(=O)c1cc(NCc2ccc(NCC3CCN(C)CC3)nc2)cc2c(Cl)c[nH]c12 [Example 1220, 3-chloro-N-methyl-5-(((6-(((1-methylpiperidin-4-yl)methyl)amino)pyridin-3-yl)methyl)amino)-1H-indole-7-carboxamide] | > 40 µM |
